Measurements as given in patent publication US20240067655A1 (NEURON23, INC., priority 2020, published 2024).

Target: T1, wt human LRRK2, catalytic site (Homo sapiens, UniProt Q5S007)
T1 construct: wt human LRRK2, catalytic site; purchased ThermoFisher/USA
Test: TR-FRET LanthaScreen Tb Kinase Activity Assay (Example 71)
Format: biochemical
Settings: compounds of Table 4, 38 uM ATP, method names only wt human LRRK2, read-out: IC50, Inhibitory Activity Toward LRRK2 (Wt) and LRRK2 (G2019)
Protocol: The compounds in Table 4 were tested for their inhibitory effect on LRRK2 kinases according to the following procedures.
The basic protocol for TR-FRET LanthaScreen Tb Kinase Activity Assay inhibitor studies were performed as follows. LanthaScreen Kinase Activity Assays (ThermoFisher/USA) to evaluate inhibitors were performed by addition of 100 nl of test compound in corresponding DMSO dilutions/5 μl of kinase/fluorescein-ERM(LRRKtide) peptide mixture, 5 μl of ATP into 384 well small volume plates. After incubation for 120 minutes at room temperature, the detection reagents containing Tb-anti-pLRRKtide antibody were added to monitor phosphrylation level of peptide. Then, after 60 min minutes incubation at room temperature plates were read in Envision. Data analysis of emission ratios was according to LanthaScreen Tb Kinase Activity Assay protocol.
Kinase and assay components were adjusted to final concentrations according to the kit protocol. For LRRK2: 2 nM wt human LRRK2, catalytic site, catalytic site (ThermoFisher/USA), 400 nM peptide, 38 uM ATP in 1× Kinase Buffer A.
Basic protocol for TR-FRET LanthaScreen Tb Kinase Activity Assay inhibitor studies involved two steps:
Enzymatic step: Addition of 100 nl of test compound in corresponding DMSO dilutions, 5 μl of kinase/substrate mixture, 5 μl of ATP into 384 well small volume plates. Incubation for 120 minutes at room temperature.
Detection step: Addition of 10 μl EDTA & antibody, read plate after 60 minutes. Data analysis of emission ratios according to KinEASE assay protocol.

T1 sequence (Q5S007 1879-2138 limits assumed): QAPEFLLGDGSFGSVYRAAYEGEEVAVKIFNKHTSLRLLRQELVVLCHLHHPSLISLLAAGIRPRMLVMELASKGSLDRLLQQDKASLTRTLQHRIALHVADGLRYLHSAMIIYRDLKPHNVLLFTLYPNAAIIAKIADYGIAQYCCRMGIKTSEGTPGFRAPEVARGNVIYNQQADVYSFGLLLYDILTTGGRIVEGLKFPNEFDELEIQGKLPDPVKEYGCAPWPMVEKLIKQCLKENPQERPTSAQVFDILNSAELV

IC50 [nM] | SMILES
10 to 100 | C[C@@H]1CCN2C(c3c(F)cccc3F)=Nc3cn[nH]c3-c3cnn1c32 (single isomer, unassigned) [Compound 346]
< 10 | C[C@H]1CCN2C(c3c(F)cccc3F)=Nc3cn[nH]c3-c3cnn1c32 (single isomer, unassigned) [Compound 347]
< 10 | C[C@@H]1CN2C(c3c(F)cccc3F)=Nc3cn[nH]c3-c3cnn(c32)C1 (single isomer, unassigned) [Compound 349]
10 to 100 | C[C@H]1CN2C(c3c(F)cccc3F)=Nc3cn[nH]c3-c3cnn(c32)C1 (single isomer, unassigned) [Compound 350]
< 10 | Cc1cccc(F)c1C1=Nc2cn[nH]c2-c2cnn3c2N1CCC3 [Compound 340, 9-(2-fluoro-6-methylphenyl)-3,6,7,8-tetrahydro-2,3,5,5a,8a,10 hexaazabenzo[cd]cyclopenta[h]azulene]
< 10 | Fc1cccc(Cl)c1C1=Nc2cn[nH]c2-c2cnn3c2N1CCC3 [Compound 341, 9-(2-chloro-6-fluorophenyl)-3,6,7,8-tetrahydro-2,3,5,5a,8a,10-hexaazabenzo[cd]cyclopenta[h]azulene]
10 to 100 | Clc1cccc(Cl)c1C1=Nc2cn[nH]c2-c2cnn3c2N1CCC3 [Compound 342, 9-(2,6-dichlorophenyl)-3,6,7,8-tetrahydro-2,3,5,5a,8a,10-hexaazabenzo[cd]cyclopenta[h]azulene]
< 10 | Cc1cc(F)c(C2=Nc3cn[nH]c3-c3cnn4c3N2CCC4)c(F)c1 [Compound 343, 9-(2,6-difluoro-4-methylphenyl)-3,6,7,8-tetrahydro-2,3,5,5a,8a,10 hexaazabenzo[cd]cyclopenta[h]azulene]
10 to 100 | Fc1cccc(F)c1C1=Nc2cn[nH]c2-c2cnn3c2N1CCCC3 [Compound 344, 10-(2,6-difluorophenyl)-6,7,8,9-tetrahydro-3H-2,3,5,5a,9a,11-hexaazadicyclopenta[b,kl]heptalene]
< 10 | CC1CCN2C(c3c(F)cccc3F)=Nc3cn[nH]c3-c3cnn1c32 (stereo not drawn) [Compound 345, 9-(2,6-difluorophenyl)-6-methyl-3,6,7,8-tetrahydro-2,3,5,5a,8a,10-hexaazabenzo[cd]cyclopenta[h]azulene]
< 10 | CC1CN2C(c3c(F)cccc3F)=Nc3cn[nH]c3-c3cnn(c32)C1 (stereo not drawn) [Compound 348, 9-(2,6-difluorophenyl)-7-methyl-2,6,7,8-tetrahydro-2,3,5,5a,8a,10-hexaazabenzo[cd]cyclopenta[h]azulene]
10 to 100 | CC1CCn2ncc3c2N1C(c1c(F)cccc1F)=Nc1cn[nH]c1-3 (stereo not drawn) [Compound 351, 9-(2,6-difluorophenyl)-8-methyl-3,6,7,8-tetrahydro-2,3,5,5a,8a,10-hexaazabenzo[cd]cyclopenta[h]azulene]
> 1000 | Cc1nc2c3n1CCCN3C(c1c(F)cccc1F)=Nc1cn[nH]c1-2 [Compound 352]
< 10 | Fc1ccc(Br)c(F)c1C1=Nc2cn[nH]c2-c2cnn3c2N1CCC3 [Compound 353, 9-(3-bromo-2,6-difluorophenyl)-3,6,7,8-tetrahydro-2,3,5,5a,8a,10-hexaazabenzo[cd]cyclopenta[h]azulene]
< 10 | Cc1ccc(F)c(C2=Nc3cn[nH]c3-c3cnn4c3N2CCC4)c1F [Compound 354, 9-(2,6-difluoro-3-methylphenyl)-3,6,7,8-tetrahydro-2,3,5,5a,8a,10 Hexaazabenzo[cd]cyclopenta[h]azulene]
< 10 | Fc1ccc(Br)c(Cl)c1C1=Nc2cn[nH]c2-c2cnn3c2N1CCC3 [Compound 355, 8-(3-bromo-2-chloro-6-fluoro-phenyl)-3,4,7,9,13,14-hexazatetracyclo-[7.6.1.02,6.013,16]hexadeca-1(16),2(6),4,7,14-pentaene]
10 to 100 | Fc1cccc(C2CC2)c1C1=Nc2cn[nH]c2-c2cnn3c2N1CCC3 [Compound 356, 9-(2-cyclopropyl-6-fluorophenyl)-3,6,7,8-tetrahydro-2,3,5,5a,8a,10-hexaazabenzo[cd]cyclopenta[h]azulene]
10 to 100 | N#Cc1cc(F)c(C2=Nc3cn[nH]c3-c3cnn4c3N2CCC4)c(F)c1 [Compound 358]

IC50 [nM] | SMILES
10 to 100 | OCc1cc(F)c(C2=Nc3cn[nH]c3-c3cnn4c3N2CCC4)c(F)c1 [Compound 359, (3,5-difluoro-4-(3,6,7,8-tetrahydro-2,3,5,5a,8a,10-hexaazabenzo[cd]cyclopenta[h]azulen-9-yl)phenyl)methanol]
10 to 100 | COc1cc(F)c(C2=Nc3cn[nH]c3-c3cnn4c3N2CCC4)c(F)c1 [Compound 360, 8-(2,6-difluoro-4-methoxy-phenyl)-3,4,7,9,13,14-hexazatetracyclo[7.6.1.02,6.013,16]hexadeca-1(16),2(6),4,7,14-pentaene]
10 to 100 | c1ccc(C2=Nc3cn[nH]c3-c3cnn4c3N2CCC4)cc1 [Compound 361, 8-phenyl-3,4,7,9,13,14-hexazatetracyclo[7.6.1.02,6.013,16]hexadeca-1(16),2(6),4,7,14-pentaene]
10 to 100 | Fc1ccccc1C1=Nc2cn[nH]c2-c2cnn3c2N1CCC3 [Compound 362, 9-(2-fluorophenyl)-3,6,7,8-tetrahydro-2,3,5,5a,8a,10-hexaazabenzo[cd]cyclopenta[h]azulene]
100 to 1000 | Fc1ccccc1C1=Nc2cn[nH]c2-c2cnn3c2N1CCCC3 [Compound 363, 10-(2-fluorophenyl)-6,7,8,9-tetrahydro-3H-2,3,5,5a,9a,11-hexaazadicyclopenta[b,kl]heptalene]
100 to 1000 | Clc1ccccc1C1=Nc2cn[nH]c2-c2cnn3c2N1CCCC3 [Compound 364, 10-(2-chlorophenyl)-6,7,8,9-tetrahydro-3H-2,3,5,5a,9a,11-hexaazadicyclopenta[b,kl]heptalene]
> 1000 | Fc1cccnc1C1=Nc2cn[nH]c2-c2cnn3c2N1CCCC3 [Compound 365, 10-(3-fluoropyridin-2-yl)-6,7,8,9-tetrahydro-3H-2,3,5,5a,9a,11-hexaazadicyclopenta[b,kl]heptalene]
100 to 1000 | Cc1nn2c3c1-c1[nH]ncc1N=C(c1c(F)cccc1F)N3CCC2 [Compound 366, 9-(2,6-difluorophenyl)-4-methyl-3,6,7,8-tetrahydro-2,3,5,5a,8a,10-hexaazabenzo[cd]cyclopenta[h]azulene]
10 to 100 | Fc1ccc(F)c(C2=Nc3cn[nH]c3-c3cnn4c3N2CCC4)c1F [Compound 367, 8-(2,3,6-trifluorophenyl)-3,4,7,9,13,14-hexazatetracyclo[7.6.1.02,6.013,16]hexadeca-1(16),2(6),4,7,14-pentaene]
< 10 | Fc1ccc(Cl)c(F)c1C1=Nc2cn[nH]c2-c2cnn3c2N1CCC3 [Compound 368, 8-(3-chloro-2,6-difluoro-phenyl)-3,4,7,9,13,14-hexazatetracyclo[7.6.1.02,6.013,16]hexadeca-1(16),2(6),4,7,14-pentaene]
100 to 1000 | Fc1cccc(F)c1C1=Nc2cn[nH]c2-n2ncc3c2N1CCC3 [Compound 369, 9-(2,6-difluorophenyl)-3,6,7,8-tetrahydro-2,3,3b,4,8a,10-hexaazabenzo[cd]cyclopenta[h]azulene]
< 10 | Cc1n[nH]c2c1N=C(c1c(F)cccc1F)N1CCCn3ncc-2c31 [Compound 370, 9-(2,6-difluorophenyl)-1-methyl-3,6,7,8-tetrahydro-2,3,5,5a,8a,10-hexaazabenzo[cd]cyclopenta[h]azulene]
< 10 | Fc1cccc(F)c1C1=Nc2c(Cl)n[nH]c2-c2cnn3c2N1CCC3 [Compound 371, 5-chloro-8-(2,6-difluorophenyl)-3,4,7,9,13,14-hexazatetracyclo[7.6.1.02,6.013,16]hexadeca-1(16),2(6),4,7,14-pentaene]
< 10 | Cc1n[nH]c2c1N=C(c1c(F)cccc1F)N1CCn3ncc-2c31 [Compound 372, 8-(2,6-difluorophenyl)-5-methyl-3,4,7,9,12,13-hexazatetrahydro[7.5.1.02,6.012,15]pentadeca-1(15),2,5,7,13-pentaene]
< 10 | Fc1cccc(F)c1C1=Nc2cn[nH]c2-c2cnn3c2N1CC3 [Compound 373, 3-(2,6-difluorophenyl)-2,7-dihydro-1H-2a,4,6,7,9,9a-hexaazadicyclopenta[cd,f]azulene]
100 to 1000 | Cc1nn2c3c1CCCN3C(c1c(F)cccc1F)=Nc1cn[nH]c1-2 [Compound 374, 8-(2,6-difluorophenyl)-14-methyl-1,3,4,7,9,15-hexazatetracyclo[7.6.1.02,6.013,16]hexadeca-2(6),4,7,13(16),14-pentaene]
< 10 | Fc1cccc(F)c1C1=Nc2c(Cl)n[nH]c2-c2cnn3c2N1CC3 [Compound 375, 5-chloro-3-(2,6-difluorophenyl)-2,7-dihydro-1H-2a,4,6,7,9,9a-hexaazadicyclopenta[cd,f]azulene]
10 to 100 | Fc1cncc(F)c1C1=Nc2cn[nH]c2-c2cnn3c2N1CCC3 [Compound 376, 8-(3,5-difluoro-4-pyridyl)-3,4,7,9,13,14-hexazatetracyclo[7.6.1.02,6.013,16]hexadeca-1(16),2(6),4,7,14-pentaene]
